Experimental data: patent US12016906B2, “Pharmaceutical composition for anaemia” (Frimline Private Limited, priority 2018, dated 2024)

Columns and labels:
Type in all cases: in vivo, male Wistar rats (Rat Rattus)
[1] = tested on: Iron deficient Diet (IDD) induced anaemia in rats; assay: Serum iron level in IDD induced anaemia in rats; set-up: Serum IRON % Change compared to Disease control: concentration or dose not given beside the values; settings: for Serum IRON Pre-treatment: Day 35, before treatment; for Serum IRON Pre-treatment / Serum IRON Post-treatment / Serum IRON % Change compared to Disease control: IDD rats; for Serum IRON Post-treatment: Day 98, after 9 weeks of treatment p.o.; for Serum IRON % Change compared to Disease control: Day 98
Description: (§1) Screening of pharmaceutical composition/formulation comprising combination of Lactoferrin+Guanosine Nucleotide or a pharmaceutically acceptable salt thereof with or without optional ingredients against Iron deficient Diet (IDD) induced anaemia in rats. For this study different parameters like Hb Level, Hematocrit level, Serum Iron level, Ferroportin level, Serum Ferritin level, Hepcidin level and IL-6 Level were evaluated. The following trials were carried out by taking reference from Wang Xl, Liu S, Xu H, Yan W, Effects of recombinant human lactoferrin on improving the iron status of IDA. Wei Sheng Yan Jiu. 2012 January; 41(1):13-7, 22 and Nora M. El-Sheikh, the Protective Effect of Soybean and Thyme on Iron Deficiency Anemia in Rats, the Egyptian Journal of Hospital Medicine (2008) Vol., 33: 510-520 as available.
(§2) 72 male Wistar rats (Rat Rattus) (6 per group) were maintained in animal house in a light/dark atmosphere based on a 12 hour cycle having temperature and relative humidity in the range of 22±3° C. and 30-70% respectively. To maintain the appropriate conditions, temperature and relative humidity were recorded three times daily. All animals were acclimatized for a minimum period of five days. Animals were maintained in the test setup for minimum 30 minutes once during the acclimatization period to reduce the stress. Animals were weighed on the day of receipt and observed daily for abnormalities if any. Detailed records of acclimatization were also maintained. Rats were housed 6 per cage in clean, sterilized Polypropylene cages. During complete experiment, animals were supplied with the standard certified rat pellet feed (manufactured by Keval sales corporation, Vadodara) and drinking water treated by the reverse osmosis ad libitum. Analysis reports for microbial load and contaminants in feed and water and nutrient content of feed were also retained.
(§3) In order to evaluate the activity against IDD induced anaemia, seventy two (72) rats were screened and divided in to twelve groups. For a comparative analysis, groups were divided as normal control (Group 1), disease control (Group 2), treatment groups with individual components (Group 3, Group 4, Group 5, Group 6 and Group 7 as Lactoferrin, Disodium Guanosine monophosphate (GMP), Guanosine diphosphate (GDP), Guanosine triphosphate (GTP) and Vitamin C respectively), test composition/formulation of the present invention (Group 8 as combination of Lactoferrin Disodium GMP, Group 9 as combination of Lactoferrin GDP, Group 10 as combination of Lactoferrin+GTP, […] as combination of Lactoferrin+Disodium GMP+Vitamin C) and reference standard drug (Group 12). Table 1 provides the details of the various groups and treatments conducted in the trial wherein group no. G3 to G12 are treatment groups.
(§4) Group nos. 2 to 12 animals under consideration were administered IDD (3 mg Fe/Kg of diet) for the period of 3 weeks, while group 1 animal received Normal pellet diet (35 mg Fe/Kg of diet).
(§5) After 3 weeks of respective dietary intervention, the level of Hemoglobin was determined in each animal. Looking at low increase in hemoglobin. Hematocrit % (HCT %) level and serum iron level, further dietary intervention was continued for additional two (2) weeks.
(§6) After 5 weeks (35 days) of respective dietary intervention, once again hemoglobin level, HCT % level and serum iron level were analyzed and then, respective drug treatment was started with continuous administration of Iron deficient diets in all groups as mentioned above in Table 1.
(§7) After 9 weeks of respective drug treatment (total after 14 weeks from start of the study—98 days), various biochemical parameters were measured to evaluate the effect of respective individual and combination therapy on iron deficient anaemia model (G3 to G12).
(§8) • A. Clinical observations (Daily) • B. Mortality (Daily) • C. […]

[2] = tested on: Iron deficient Diet (IDD) induced anaemia in rats; assay: IL-6 level in IDD induced anaemia in rats; settings: for IL-6 Post-treatment: Day 98, after 9 weeks of treatment p.o.; for IL-6 Post-treatment / IL-6 % Change compared to Disease control: IDD rats; for IL-6 % Change compared to Disease control: Day 98
Description: as §1, with “Jiu.” for “Jiu. 2012 January; 41(1):13-7, 22 and Nora M. El-Sheikh, the Protective Effect of Soybean and Thyme on Iron Deficiency Anemia in Rats, the Egyptian Journal of Hospital Medicine (2008) Vol., 33: 510-520 as available.”
as §2, §3, §6, §7
• A. Clinical observations (Daily) • B. Mortality (Daily) • C. Body weight (Initially and then weekly till the end of study) • D. After 3 and 5 weeks of Iron deficient diet supplement • (i) Hematological parameters (RBC count, Hb Level, Hematocrit % MCV, MCH and MCHC). • (ii) Serum Iron Level. • E. At the end of 14 weeks of study • (i) Hematological parameters (RBC count, Hb Level, Hematocrit %, MCV, MCH and MCHC). • (ii) Biochemical parameters (Serum Iron level, Ferroportin level, Serum Ferritin level, Hepcidin level, IL-6 level). Statistical Analysis: One way ANOVA followed by Tuckey's test was performed and p value<0.05 is considered to be statistically significant. […] Hematology: (after 3 Weeks and 5 Weeks of Feed Intervention and after 9 Weeks of Treatment)

[3] = tested on: Iron deficient Diet (IDD) induced anaemia in rats; assay: Hepcidin level in IDD induced anaemia in rats; set-up: Hepcidin % Change compared to Disease control: concentration or dose not given beside the values; settings: for Hepcidin Post-treatment: Day 98, after 9 weeks of treatment p.o.; for Hepcidin Post-treatment / Hepcidin % Change compared to Disease control: IDD rats; for Hepcidin % Change compared to Disease control: Day 98
Description: as §1, §2, §3, §4, §6, §7, §8

[4] = tested on: Iron deficient Diet (IDD) induced anaemia in rats; assay: Hematocrit % level in IDD induced anaemia in rats; set-up: Hematocrit % Change compared to Disease control: concentration or dose not given beside the values; settings: for Hematocrit Pre-treatment: Day 35, before treatment; for Hematocrit Pre-treatment / Hematocrit Post-treatment / Hematocrit % Change compared to Disease control: IDD rats; for Hematocrit Post-treatment: Day 98, after 9 weeks of treatment p.o.; for Hematocrit % Change compared to Disease control: Day 98
Description: as §1, §2, §3, §4, §5, §6, §7, §8

[5] = tested on: Iron deficient Diet (IDD) induced anaemia in rats; assay: Hb level in IDD induced anaemia in rats; set-up: Hemoglobin % Change compared to Disease control: concentration or dose not given beside the values; settings: for Hemoglobin Pre-treatment: Day 35, before treatment; for Hemoglobin Pre-treatment / Hemoglobin Post-treatment / Hemoglobin % Change compared to Disease control: IDD rats; for Hemoglobin Post-treatment: Day 98, after 9 weeks of treatment p.o.; for Hemoglobin % Change compared to Disease control: Day 98
Description: as §1, with “Jiu.” for “Jiu. 2012 January; 41(1):13-7, 22 and Nora M. El-Sheikh, the Protective Effect of Soybean and Thyme on Iron Deficiency Anemia in Rats, the Egyptian Journal of Hospital Medicine (2008) Vol., 33: 510-520 as available.”
as §2, §3
After 3 weeks of respective dietary intervention, the level of Hemoglobin was determined in each animal.
as §6, §7
• A. Clinical observations (Daily) • B. Mortality (Daily) • C. Body weight (Initially and then weekly till the end of study) • D. After 3 and 5 weeks of Iron deficient diet supplement • (i) Hematological parameters (RBC count, Hb Level, Hematocrit % MCV, MCH and MCHC). • (ii) Serum Iron Level. • E. At the end of 14 weeks of study • (i) Hematological parameters (RBC count, Hb Level, Hematocrit %, MCV, MCH and MCHC). • (ii) Biochemical parameters (Serum Iron level, Ferroportin level, Serum Ferritin level, Hepcidin level, IL-6 level).

[6] = tested on: Iron deficient Diet (IDD) induced anaemia in rats; assay: Ferroportin level in IDD induced anaemia in rats; set-up: Ferroportin % Change compared to Disease control: concentration or dose not given beside the values; settings: for Ferroportin Post-treatment: Day 98, after 9 weeks of treatment p.o.; for Ferroportin Post-treatment / Ferroportin % Change compared to Disease control: IDD rats; for Ferroportin % Change compared to Disease control: Day 98
Description: as §1, §2, §3, §4, §6, §7, §8

[7] = tested on: Iron deficient Diet (IDD) induced anaemia in rats; assay: Serum ferritin level in IDD induced anaemia in rats; set-up: Ferritin % Change compared to Disease control: concentration or dose not given beside the values; settings: for Ferritin Post-treatment: Day 98, after 9 weeks of treatment p.o.; for Ferritin Post-treatment / Ferritin % Change compared to Disease control: IDD rats; for Ferritin % Change compared to Disease control: Day 98
Description: as §1, §2, §3, §4, §6, §7, §8

[8] = rats on iron deficient diet, after treatment for 9 weeks, compared to disease control group (G2)
[9] = rats on iron deficient diet, after treatment of 9 weeks, compared to disease control group (G2)

Molecule: Nc1nc2c(ncn2[C@@H]2O[C@H](COP(=O)(O)OP(=O)(O)O)[C@@H](O)[C@H]2O)c(=O)[nH]1 [GDP, Guanosine diphosphate]
- Serum IRON Pre-treatment [1]: 3.30 ppm
- Serum IRON Post-treatment [1]: 3.99 ppm
- Serum IRON % Change compared to Disease control [1]: 49.7%
- IL-6 Post-treatment [2]: 62.2 pg/mL
- IL-6 % Change compared to Disease control [2]: −0.3%
- Hepcidin Post-treatment [3]: 4351 ng/mL
- Hepcidin % Change compared to Disease control [3]: −1.1%
- Hematocrit Pre-treatment [4]: 35.61%
- Hematocrit Post-treatment [4]: 37.77%
- Hematocrit % Change compared to Disease control [4]: 46.9%
- Hemoglobin Pre-treatment [5]: 8.62 g/dL
- Hemoglobin Post-treatment [5]: 9.34 g/dL
- Hemoglobin % Change compared to Disease control [5]: 43.4%
- Ferroportin Post-treatment [6]: 3.0 ng/mL
- Ferroportin % Change compared to Disease control [6]: 11.1%
- Ferritin Post-treatment [7]: 702 ng/mL
- Ferritin % Change compared to Disease control [7]: −5.1%

Molecule: Nc1nc2c(ncn2[C@@H]2O[C@H](COP(=O)([O-])[O-])[C@@H](O)[C@H]2O)c(=O)[nH]1.[Na+].[Na+] [Disodium GMP, Disodium Guanosine 5-Monophosphate]
- IL-6 Post-treatment [2]: 62.9 pg/mL
- IL-6 % Change compared to Disease control [2]: 0.9%
- Hepcidin Post-treatment [3]: 4303 ng/mL
- Hepcidin % Change compared to Disease control [3]: −2.2%
- Ferroportin Post-treatment [6]: 3.0 ng/mL
- Ferroportin % Change compared to Disease control [6]: 11.4%
- Ferritin Post-treatment [7]: 700 ng/mL
- Ferritin % Change compared to Disease control [7]: −5.4%

Molecule: Nc1nc2c(ncn2[C@@H]2O[C@H](COP(=O)([O-])[O-])[C@@H](O)[C@H]2O)c(=O)[nH]1.[Na+].[Na+] [Disodiurn GMP]
- Serum IRON Pre-treatment [1]: 2.82 ppm
- Serum IRON Post-treatment [1]: 3.43 ppm
- Serum IRON % Change compared to Disease control [1]: 28.8%
- Hematocrit Pre-treatment [4]: 35.35%
- Hematocrit Post-treatment [4]: 38.89%
- Hematocrit % Change compared to Disease control [4]: 51.3%
- Hemoglobin Pre-treatment [5]: 8.54 g/dL
- Hemoglobin Post-treatment [5]: 9.18 g/dL
- Hemoglobin % Change compared to Disease control [5]: 40.8%

Molecule: Nc1nc2c(ncn2[C@@H]2O[C@H](COP(=O)(O)OP(=O)(O)OP(=O)(O)O)[C@@H](O)[C@H]2O)c(=O)[nH]1 [GTP, Guanosine triphosphate]
- Serum IRON Pre-treatment [1]: 3.03 ppm
- Serum IRON Post-treatment [1]: 3.98 ppm
- Serum IRON % Change compared to Disease control [1]: 49.2%
- IL-6 Post-treatment [2]: 62.2 pg/mL
- IL-6 % Change compared to Disease control [2]: −0.2%
- Hepcidin Post-treatment [3]: 4392 ng/mL
- Hepcidin % Change compared to Disease control [3]: −0.2%
- Hematocrit Pre-treatment [4]: 35.74%
- Hematocrit Post-treatment [4]: 37.96%
- Hematocrit % Change compared to Disease control [4]: 11.7%
- Hemoglobin Pre-treatment [5]: 8.45 g/dL
- Hemoglobin Post-treatment [5]: 9.12 g/dL
- Hemoglobin % Change compared to Disease control [5]: 39.9%
- Ferroportin Post-treatment [6]: 3.0 ng/mL
- Ferroportin % Change compared to Disease control [6]: 9.5%
- Ferritin Post-treatment [7]: 698 ng/mL
- Ferritin % Change compared to Disease control [7]: −5.7%

Molecule: Vit C
- Serum IRON Pre-treatment [1]: 2.76 ppm
- Serum IRON Post-treatment [1]: 3.54 ppm
- Serum IRON % Change compared to Disease control [1]: 32.7%
- IL-6 Post-treatment [2]: 63.4 pg/mL
- IL-6 % Change compared to Disease control [2]: 1.6%
- Hepcidin Post-treatment [3]: 4267 ng/mL
- Hepcidin % Change compared to Disease control [3]: −3.0%
- Hematocrit Pre-treatment [4]: 35.64%
- Hematocrit Post-treatment [4]: 37.24%
- Hematocrit % Change compared to Disease control [4]: 44.9%
- Hemoglobin Pre-treatment [5]: 8.28 g/dL
- Hemoglobin Post-treatment [5]: 9.22 g/dL
- Hemoglobin % Change compared to Disease control [5]: 41.5%
- Ferroportin Post-treatment [6]: 3.1 ng/mL
- Ferroportin % Change compared to Disease control [6]: 12.9%
- Ferritin Post-treatment [7]: 689 ng/mL
- Ferritin % Change compared to Disease control [7]: −6.9%

Molecule: O=S(=O)([O-])[O-].[Fe+2] [FeSO4, ferrous sulphate, reference compound]
- Serum IRON Pre-treatment [1]: 2.43 ppm
- Serum IRON Post-treatment [1]: 9.84 ppm
- Serum IRON % Change compared to Disease control [1]: 269.2%
- Serum Iron level [1, 8]: significant increase
- IL-6 Post-treatment [2]: 60.4 pg/mL
- IL-6 % Change compared to Disease control [2]: −3.2%
- IL-6 level [2, 9]: no significant change
- Hepcidin Post-treatment [3]: 4260 ng/mL
- Hepcidin % Change compared to Disease control [3]: −3.2%
- Hepcidin level [3, 9]: no significant change
- Hematocrit Pre-treatment [4]: 35.10%
- Hematocrit Post-treatment [4]: 47.22%
- Hematocrit % Change compared to Disease control [4]: 83.7%
- % Hematocrit level [4, 8]: significant increment
- Hemoglobin Pre-treatment [5]: 8.71 g/dL
- Hemoglobin Post-treatment [5]: 15.2 g/dL
- Hemoglobin % Change compared to Disease control [5]: 134.0%
- Hb level [5, 8]: significant increment
- Ferroportin Post-treatment [6]: 3.0 ng/mL
- Ferroportin % Change compared to Disease control [6]: 12.5%
- Ferroportin level [6, 9]: no significant change
- Ferritin Post-treatment [7]: 720 ng/mL
- Ferritin % Change compared to Disease control [7]: −2.7%
- Serum Ferritin level [7, 9]: no significant change
